“Also recorded” adds a separate entry of the source. *1 amine or outer side, *2 acyl side, *3 side chain or, on linkers, in order; H or OH if unused. Where a SMILES comes first, the peptide text is derived from it. Bridges are numbered along the chain shown (N, C = ends). Roman numbers before positions name the chains, in order. [ ]: non-standard residue; d: D form. Actinocin(9to1) = Cc1c2oc3c(C)ccc(C(=O)[*:1])c3nc-2c(C(=O)[*:2])c(N)c1=O; NMeV = CN[C@H](C(=O)O)C(C)C; Sar = CNCC(=O)O
Experiments:
[1] = test system: HMLEshEcad cells; assay: Dose-response viability of HMLEshCntrl vs HMLEshEcad cells (validation of hits, 384-well, Cell-Titer-Glo); assay type: cell-based, human; conditions: FIG. 4A; for selective toxicity towards HMLEshEcad cells relative to HMLEshCntrl cells: dose response on retesting; for IC50 fold lower for HMLEshEcad cells vs HMLEshCntrl cells: 3 day treatment, 8 concentrations
Protocol: (§1) FIG. 4A depicts dose response curves of HMLEshCntrl (A, light gray curve) and HMLEshEcad (A, dark gray curve) cells treated with the 8 compounds identified during the initial screen. 1000 cells of each line were seeded onto 384 well plates and treated with 8 different concentrations of compounds within a 2.5 log range. The cell viability after 3 day treatment was measured by Cell-Titer-Glo. […] FIG. 4B depicts dose response curves of HMLEshCntrl (curve with square data points) and HMLE-Twist (curve with triangular data points) cells treated with the same compounds as in (A). Note that selectivity of Salinomycin, Abamectin, Etoposide and Nigericin (Top, Left-to-Right) is retained even though a different method of EMT induction is used. […] 1 Day after seeding DMSO, Salinomycin (1.25 or 5 μM) or Abamectin (0.25 or 1.25 μM) was added at the indicated concentration. As the GFP vector contains a Blasticidin resistance gene, we used Blasticidin treatment as a positive control for the expansion of GFP-expressing control HMLE cells. After 3 day incubation the mix population of cells were analyzed by flow cytometry and the percentage of GFP-positive cells were determined. […] FIG. 4D depicts dose response curves of transformed HMLERshCntrl (light gray line) and HMLERshEcad (dark gray lines) cells treated with Salinomycin and Abamectin. Dotted line denotes the 50% fraction surviving.
We pursued 8 of the 32 compounds for further study and evaluated their effects across a range of doses.
For each of these compounds, we evaluated the effect on cell viability across a series of doses for sibling cell lines either induced into or not induced into EMT.
Information about the general automated HTS protocol is available online at broad.harvard.edu/chembio/index.html. The assay was initiated by plating 40 μL of medium containing 1000 cells/well into white 384-well opaque-bottom plates (Nunc, Rochester, N.Y.) using an automated plate filler (Bio-Tek μFiller; Winsooki, Vt.) and allowing the cells to adhere for 24 hours. 100 nL of compound stock solutions in dmso was transferred from stock plates into the 384-well assay plates using an automated pin-based compound transfer robot (CyBio CyBi-Well vario; Woburn, Mass.). For most compounds the final concentration in each well was calculated to be 10 uM.
The screen was performed in duplicate. For negative controls, entire dmso-treated control plates were employed, in addition to dmso-only control wells that were incorporated into each compound assay plate. The cells were assayed for luciferase activity with the addition 20 ul of CellTiter-Glo Luminescent Cell Viability Assay solution (Promega). The luminescent signal from each plate was detected using an automated plate reader (Perkin-Elmer Envision 1; Wellesley, Mass.).
(§2) Individual compounds were purchased from Sigma and dissolved in DMSO with the exception of nigericin which was dissolved in 100% ethanol. Activity of the compounds were quantified by generating dose-response curves for HMLE-shCntrl, HMLE-shEcad and HMLE-Twist under the same cell density and culture conditions described for the initial screen, using the 384-well plate based system.

[2] = test system: HMLE-Twist cells; assay: Co-culture of GFP-expressing HMLE cells and unlabelled HMLE-Twist cells, FACS for GFP positivity; assay type: cell-based, human; conditions: FIG. 4C; for GFP-positive fraction relative to DMSO-treated controls: GFP-labeled HMLE + unlabeled HMLE-Twist
Protocol: as §1
To examine the effects of salinomycin and abamectin treatment on heterogeneous populations of epithelial cells that have and epithelial cells that have not undergone EMT, we co-mixed GFP-labeled HMLE cells with unlabeled HMLE-Twist cells, treating the resulting co-cultures with compounds. As a positive control for this experiment we treated co-cultures with blasticidin, which selects for the differentiated HMLE-GFP cells, which harbor a blasticidin-resistance gene.
For the mix experiments, unlabelled and GFP-labeled cells were mixed at the indicated ratios and seeded onto 6-well plates. Triplicate wells were then treated with dmso or the compounds (paclitaxel, salinomycin, abamectin and blasticidin) for 48 hrs. The cells were washed with PBS, trypsinized and analyzed by FACS for GFP positivity.

[3] = test system: HMLEshEcad cells; assay: Resistance to cytotoxic agents, immortalized HMLEshCntrl vs HMLEshEcad (MTS viability); assay type: cell-based, human; conditions: three concentrations, FIG. 2B
Protocol: (§3) FIGS. 2A-2D depict that passage through the EMT leads to resistance to conventional chemotherapy drugs. FIG. 2A depicts dose response curves of transformed HMLERshCntrl (light gray line) and HMLERshEcad (dark gray line) cells treated with Paclitaxel and Doxorubicin. Dotted line denotes the 50% fraction surviving. […] FIG. 2B depicts the response of immortalized cells to chemotherapy drugs. HMLEshCntrl and HMLEshEcad cells were treated with the indicated drugs at three concentrations for 3 days and assayed for viability using the MTS assay. While Doxorubucin, Actinomycin D, Paclitaxel and Campthotecin are chemotherapeutic drugs, Staurosporine is a general kinase inhibitor that potently induce apoptosis. FIGS. 2C and 2D depict paclitaxel treatment leads to selective expansion of a minority cell population that has undergone an EMT. Control HMLE cells and GFP expressing HMLEshEcad cells were mixed at a ratio of 20:1 and seeded onto 6-well plates in triplicate. DMSO or Paclitaxel at 2.5 nm or 10 nm concentration was added onto the mixed cell populations 1 day after seeding followed by a 3 day incubation. The number of GFP-positive cells at the end of treatment were analyzed by flow cytometry. […] Note the increase in GFP positivity from 5% to 14% upon […] Paclitaxel treatment.
However, we postulated that the differential drug sensitivity observed was, rather, a consequence of the respective differentiation states of the immortalized cells from which the cancer cell lines were derived. To directly examine this hypothesis, we treated HMLEsiGFP and HMLEsiEcad cells for a period of […] with a series of chemical compounds at 3 different concentrations each. Included in these compounds were the established chemotherapy drugs Doxorubicin, Paclitaxel, Actinomycin D, Camptothecin as well as a broad kinase inhibitor, Staurosporine.
(§4) Doxorubicin, paclitaxel, actinomycin D, campthotecin and staurosporine were purchased from Sigma and dissolved in dimethyl sulfoxide (dmso). 5000 cells in 100 ul of medium were plated per well in 96-well plates. 24 hrs after seeding, compounds at the indicated concentration were added to wells (5 wells per each concentration). Dmso treatment was used as negative control. Cell viability was measured after 72 hrs using the CellTiter96 AQueous Assay (Promega) according to manufacturer's instructions. Dose response curves were generated with GraphPad Prism software (GraphPad Software, Inc.).

[4] = test system: HMLE-Twist cells; assay: Dose-response viability of HMLEshCntrl vs HMLE-Twist cells; assay type: cell-based, human; conditions: EMT induced by Twist, FIG. 4B
Protocol: as §1, §2

[5] = test system: HMLERshEcad cells; assay: Resistance to cytotoxic agents, transformed HMLERshCntrl vs HMLERshEcad dose response; assay type: cell-based, human; conditions: FIG. 2A
Protocol: as §3
Since the HMLERsiEcad cells have a 100-fold increase in the frequency of cells capable of seeding tumors, we examined their response to two commonly used chemotherapy drugs, relative to HMLERsiGFP controls. We treated cultured HMLERsiGFP and HMLERsiEcad cells for a period of 3 days with either doxorubicin or paclitaxel, at various concentrations.
as §4

[6] = test system: SUM159 cells; assay: FACS of the CD44hi/CD24lo fraction in treated SUM159 cells; assay type: cell-based; conditions: FIGS. 5C and 5D
Source text: FIG. 5A depicts flow cytometry analysis of Sum159, MDA-MB-231 and T47D cell lines with respect to cell surface expression of CD44 and CD24. Note that while the majority of cells in Sum159 and MDA-MB-231 line contain large amounts of CSCs, T47D cells have very few such cells. FIG. 5B depicts dose response curves of Sum159, MDA-MB-231 and T47D cell treated with Salinomycin.
To further characterize the effects of compound treatment on cancer cells, we conducted FACS analyses on SUM159 cells treated with salinomycin, abamectin, taxol, or DMSO.
The anti-CD44 (clone G44-26) antibody conjugated to APC and the anti-CD24 antibody (clone ML5) conjugated to PE used for FACS analysis were obtained from BD Bioscience and used according to the manufacturer's instructions. Propidium Iodide (5 ug/ml) was included in the staining protocol to distinguish live cells.

[7] = test system: HMLERshEcad cells; assay: Dose response of transformed HMLERshCntrl vs HMLERshEcad cells to screen hits; assay type: cell-based, human; conditions: range of concentrations, FIG. 4D
Protocol: as §1

Clc1ccccc1C(c1ccccc1)(c1ccccc1)n1ccnc1 [Clotrimazole]
selective toxicity towards HMLEshEcad cells relative to HMLEshCntrl cells [1]: do not display such a behaviour

CN(CC[C@H](N)CC(=O)N[C@H]1C=C[C@H](n2ccc(N)nc2=O)O[C@@H]1C(=O)O)C(=N)N [blasticidin]
GFP-positive fraction relative to DMSO-treated controls [2]: increase

CC[C@@]1(O)C(=O)OCc2c1cc1n(c2=O)Cc2cc3ccccc3nc2-1 [camptothecin]
resistance of HMLEshEcad cells relative to HMLEshCntrl control cells [3]: resistant
resistance of HMLEshEcad cells relative to HMLEshCntrl control cells ([3]; listed as Camptothecin): increased resistance

c1ccc2nc3ccccc3cc2c1 [Acridine]
selective toxicity towards HMLEshEcad cells relative to HMLEshCntrl cells [1]: do not display such a behaviour

CO[C@@H]1C[C@@H](C[C@H]2CC[C@H](C)[C@H]([C@@H](C)C(=O)O)O2)O[C@]2(O[C@](C)([C@H]3CC[C@@](C)([C@@H]4O[C@@H]([C@H]5O[C@@](O)(CO)[C@H](C)C[C@@H]5C)C[C@@H]4C)O3)C[C@H]2C)[C@@H]1C [nigericin]
IC50 fold lower for HMLEshEcad cells vs HMLEshCntrl cells [1]: ~7 fold
selective toxicity towards HMLEshEcad cells relative to HMLEshCntrl cells [1]: weaker selectivity; also recorded: modest selective toxicity
selective toxicity towards HMLEshEcad cells relative to HMLEshCntrl cells ([1]; listed as Nigericin): selective toxicity
selectivity for HMLE-Twist cells vs HMLEshCntrl; dose-response curves compared with HMLEshEcad [4]: is retained

COc1cccc2c1C(=O)c1c(O)c3c(c(O)c1C2=O)C[C@@](O)(C(=O)CO)C[C@@H]3O[C@H]1C[C@H](N)[C@H](O)[C@H](C)O1 [doxorubicin]
resistance of HMLEshEcad cells relative to HMLEshCntrl control cells [3]: increased resistance
IC50 for HMLERsiEcad cells relative to IC50 for HMLERsiGFP cells ([5]; 3 days, various concentrations): significantly higher
resistance of HMLERshEcad cells compared to HMLERshCntrl cells [5]: significantly more resistant
resistance of HMLERshEcad cells compared to HMLERshCntrl cells ([5]; listed as Doxorubicin): more resistant

Cc1c2oc3c(C)ccc(C(=O)N[C@@H]4C(=O)N[C@H](C(C)C)C(=O)N5CCC[C@H]5C(=O)N(C)CC(=O)N(C)[C@@H](C(C)C)C(=O)O[C@@H]4C)c3nc-2c(C(=O)N[C@@H]2C(=O)N[C@H](C(C)C)C(=O)N3CCC[C@H]3C(=O)N(C)CC(=O)N(C)[C@@H](C(C)C)C(=O)O[C@@H]2C)c(N)c1=O [actinomycin D] (I: T[dV]P[Sar][NMeV] / II: T[dV]P[Sar][NMeV]; ester I:1-I:C, II:1-II:C; linker I:N-II:N via Actinocin(9to1))
resistance of HMLEshEcad cells relative to HMLEshCntrl control cells [3]: resistant
resistance of HMLEshEcad cells relative to HMLEshCntrl control cells ([3]; listed as Actinomycin D): increased resistance

CN[C@@H]1C[C@H]2O[C@@](C)([C@@H]1OC)n1c3ccccc3c3c4c(c5c6ccccc6n2c5c31)C(=O)NC4 [staurosporine]
resistance of HMLEshEcad cells relative to HMLEshCntrl control cells [3]: resistant
resistance of HMLEshEcad cells relative to HMLEshCntrl control cells ([3]; listed as Staurosporine): increased resistance

Oc1cccc(O)c1 [Resorcinol]
selective toxicity towards HMLEshEcad cells relative to HMLEshCntrl cells [1]: do not display such a behaviour

abamectin
IC50 fold lower for HMLEshEcad cells vs HMLEshCntrl cells [1]: ~10 fold
selective toxicity towards HMLEshEcad cells relative to HMLEshCntrl cells [1]: moderate to strong selectivity; also recorded: strong specificity
selective toxicity towards HMLEshEcad cells relative to HMLEshCntrl cells ([1]; listed as Abamectin): selective toxicity
percent of cells in the CD44hi/CD2410 fraction relative to DMSO controls [6]: did not significantly alter
selectivity for HMLE-Twist cells vs HMLEshCntrl; dose-response curves compared with HMLEshEcad [4]: is retained
selective toxicity for HMLERshEcad (MT tumorigenic) cells [7]: modest but selective toxicity
GFP-positive fraction relative to DMSO-treated controls [2]: increase
proportion of HMLETwist cells in co-culture with control cells ([2]; Salinomycin 1.25 or 5 μM, Abamectin 0.25 or 1.25 μM): dose-dependent decrease; also recorded: selection against the GFP-negative HMLE-twist cells

Reference: patent US20140294729A1, “METHODS FOR IDENTIFICATION AND USE OF AGENTS TARGETING CANCER STEM CELLS” (Whitehead Institute for Biomedical Research, priority 2008, published 2014)
